# Test results taken from patent US8722014B2, “1 H-[1, 2, 3] triazole substituted amino acids and uses thereof” (Washington University, priority 2009, dated 2014).
# “And” between values parts separate entries of the source, which are not always exact repeats. Equal values may be shown once. Read-outs that look alike come from different tables or passages of the source.
# Tested on: subcutaneous 9L gliosarcoma tumors
# Description: Biodistribution studies were performed with both enantiomers, (R)-[^18F]4 and (S)-[^18F]4, using Fischer 344 rats (Charles River Laboratories, Wilmington Mass., USA) implanted with subcutaneous 9L gliosarcoma tumors. The tumors were implanted by subcutaneous injection of a suspension of approximately 1×10^69L gliosarcoma cells into the flanks of the rats. The tumors were allowed to grow for 3 weeks prior to the study. The rats were allowed food and water ad libitum prior to the biodistribution study. Anesthesia was achieved using a mixture of 1% isoflurane in oxygen, and the radiolabeled amino acid (R)-[^18F]4 or (S)-[^18F]4 was injected intravenously through a tail vein. The animals were euthanized in groups of four for each enantiomer at 5, 30 or 60 minutes after injection. The organs and tissues of interest and the tumors were dissected and weighed, and the amounts of activity were measured and decay corrected to the time of injection with a gamma counter. Standards for the doses were also measured with a gamma counter, and the data were normalized as the percent of total dose per gram of tissue (% ID/g) for each sample. The data were analyzed using GraphPad Prism software with 1-way ANOVAs for each enantiomer at each time point with Bonferroni post-tests. The tumor and brain uptake of radioactivity was directly compared for both enantiomers at each time point with a 2-way ANOVA with Bonferroni post-test. p-values less than or equal to 0.05 were considered statistically significant.
smiles,measurement,setting,value
"Cl.N[C@@H](Cc1cn(CC[18F])nn1)C(=O)O [(S)-[^18F]4, (S)-2-amino-3-[1-(2-fluoroethyl)-1H-[1,2,3]triazol-4-yl]propanoic acid hydrochloride salt-[^18F]]",biodistribution: blood,5 min after i.v. injection,0.98 ± 0.152 % ID/g
same,biodistribution: bone,5 min after i.v. injection,0.47 ± 0.065 % ID/g
same,biodistribution: brain,5 min after i.v. injection,0.08 ± 0.011 % ID/g
same,biodistribution: fat,5 min after i.v. injection,0.09 ± 0.020 % ID/g
same,biodistribution: heart,5 min after i.v. injection,0.43 ± 0.048 % ID/g
same,biodistribution: kidney,5 min after i.v. injection,11.02 ± 1.224 % ID/g
same,biodistribution: large intestine,5 min after i.v. injection,0.14 ± 0.012 % ID/g
same,biodistribution: liver,5 min after i.v. injection,0.34 ± 0.035 % ID/g
same,biodistribution: lung,5 min after i.v. injection,0.87 ± 0.117 % ID/g
same,biodistribution: muscle,5 min after i.v. injection,0.18 ± 0.030 % ID/g
same,biodistribution: pancreas,5 min after i.v. injection,2.75 ± 0.634 % ID/g
same,biodistribution: salivary gland,5 min after i.v. injection,0.74 ± 0.043 % ID/g
same,biodistribution: small intestine,5 min after i.v. injection,0.69 ± 0.076 % ID/g
same,biodistribution: spleen,5 min after i.v. injection,0.72 ± 0.054 % ID/g
same,biodistribution: testes,5 min after i.v. injection,0.21 ± 0.013 % ID/g
same,biodistribution: thyroid,5 min after i.v. injection,0.71 ± 0.117% of total dose per organ
same,biodistribution: tumor,5 min after i.v. injection,0.47 ± 0.069 % ID/g
same,tumor:brain ratio,5 min after i.v. injection,5.9
same,tumor bone (femur) ratio,"30 min, biodistribution study",2.3
same,tumor to muscle ratio,"30 min, biodistribution study",4.7
same,biodistribution: blood,30 min after i.v. injection,0.47 ± 0.101 % ID/g
same,biodistribution: bone,30 min after i.v. injection,0.36 ± 0.068 % ID/g
same,biodistribution: brain,30 min after i.v. injection,0.06 ± 0.008 % ID/g
same,biodistribution: fat,30 min after i.v. injection,0.05 ± 0.010 % ID/g
same,biodistribution: heart,30 min after i.v. injection,0.38 ± 0.066 % ID/g
same,biodistribution: kidney,30 min after i.v. injection,11.41 ± 1.939 % ID/g
same,biodistribution: large intestine,30 min after i.v. injection,0.15 ± 0.028 % ID/g
same,biodistribution: liver,30 min after i.v. injection,0.43 ± 0.091 % ID/g
same,biodistribution: lung,30 min after i.v. injection,0.83 ± 0.179 % ID/g
same,biodistribution: muscle,30 min after i.v. injection,0.18 ± 0.037 % ID/g
same,biodistribution: pancreas,30 min after i.v. injection,2.20 ± 0.747 % ID/g
same,biodistribution: salivary gland,30 min after i.v. injection,0.66 ± 0.139 % ID/g
same,biodistribution: small intestine,30 min after i.v. injection,0.54 ± 0.073 % ID/g
same,biodistribution: spleen,30 min after i.v. injection,0.75 ± 0.123 % ID/g
same,biodistribution: testes,30 min after i.v. injection,0.17 ± 0.033 % ID/g
same,biodistribution: thyroid,30 min after i.v. injection,0.44 ± 0.102% of total dose per organ
same,biodistribution: tumor,30 min after i.v. injection,0.83 % ID/g and 0.83 ± 0.142 % ID/g
same,tumor:brain ratio,30 min after i.v. injection,14.6
same,tumor to lung ratio,60 min,1.3
same,tumor to spleen ratio,60 min,1.5
same,tumor to normal tissue ratios,"60 min, except in the lung and the spleen",at least 2
same,biodistribution: blood,60 min after i.v. injection,0.23 ± 0.015 % ID/g
same,biodistribution: bone,60 min after i.v. injection,0.23 ± 0.011 % ID/g
same,biodistribution: brain,60 min after i.v. injection,0.05 ± 0.001 % ID/g
same,biodistribution: fat,60 min after i.v. injection,0.04 ± 0.007 % ID/g
same,biodistribution: heart,60 min after i.v. injection,0.30 ± 0.011 % ID/g
same,biodistribution: kidney,60 min after i.v. injection,4.79 ± 0.378 % ID/g
same,biodistribution: large intestine,60 min after i.v. injection,0.10 ± 0.012 % ID/g
same,biodistribution: liver,60 min after i.v. injection,0.32 ± 0.021 % ID/g
same,biodistribution: lung,60 min after i.v. injection,0.56 ± 0.085 % ID/g
same,biodistribution: muscle,60 min after i.v. injection,0.16 ± 0.006 % ID/g
same,biodistribution: pancreas,60 min after i.v. injection,1.12 ± 0.151 % ID/g
same,biodistribution: salivary gland,60 min after i.v. injection,0.36 ± 0.037 % ID/g
same,biodistribution: small intestine,60 min after i.v. injection,0.31 ± 0.024 % ID/g
same,biodistribution: spleen,60 min after i.v. injection,0.47 ± 0.035 % ID/g
same,biodistribution: testes,60 min after i.v. injection,0.11 ± 0.006 % ID/g
same,biodistribution: thyroid,60 min after i.v. injection,0.30 ± 0.024% of total dose per organ
same,biodistribution: tumor,60 min after i.v. injection,0.72 ± 0.098 % ID/g
same,tumor:brain ratio,60 min after i.v. injection,15.2
same,magnitude of tumor uptake compared with the (R)-enantiomer,"at all 3 time points, p<0.001",higher
same,maximal tumor to brain ratio,biodistribution study,15
